This is an account of results in patent US9723834B2, “Composition containing a pyripyropene insecticide and a base” (BASF SE, priority 2010, dated 2017).

The nature of data set [1]: Storage stability of emulsion concentrates at 65° C. (chemical assay before and after storage). Particulars: emulsion concentrate with addition of Stabilizer A, storage at 65° C. up to 2 weeks. Type of data set: physicochemical. As to the method:
The present invention further relates to a use of the base for increasing the stability of the pesticide of formulae I or II. The stability of the pesticide may be analyzed storage for 14 days at 65° C. An increase of the stability of the pesticide may be identified by analyzing the chemical recovery after said storage.
Finally, all samples of the emulsion concentrates were stored at 65° C. up to 2 weeks, and chemical assay was determined before and after storage. The chemical stability results as well as initial formulation pH (measured at 1% formulation dilution in water at room temperature) were listed in Table 1.

The test system of data set [2] is larvae of Helicoverpa zea. Particulars: Applied and Environmental Microbiology (1995), 61(12), 4429-35; cited from earlier work.
In data set [3] the test system is Plutella xylostella L larvae. Particulars: WO 2004/060065; cited from earlier work.
In a further data set the test system is Tenebrio molitor L. Particulars: WO 2004/060065; cited from earlier work.

Turning to `C[C@]1(COC(=O)C2CC2)[C@@H]2C[C@H](O)[C@@]3(C)Oc4cc(-c5cccnc5)oc(=O)c4[C@H](O)[C@@H]3[C@@]2(C)CC[C@@H]1OC(=O)C1CC1` [Insecticide A], the “chemical stability of Insecticide A” value in data set [1] was “dramatically improved”.

Regarding `CC(=O)OC[C@@]1(C)[C@@H]2C[C@H](OC(C)=O)[C@@]3(C)Oc4cc(-c5cccnc5)oc(=O)c4[C@H](O)[C@@H]3[C@@]2(C)CC[C@@H]1OC(C)=O` [Insecticide B, Pyripyropene A], in data set [2], the “insecticidal activity against larvae of Helicoverpa zea” value is “has insecticidal activity”. Also, the “insecticidal activity against Plutella xylostella L larvae” value in data set [3] is “has insecticidal activity”. In addition, in the data set with Tenebrio molitor L, the “insecticidal activity against Tenebrio molitor L” value is reported as “has insecticidal activity”.
